Experimental data as given in ChEMBL document CHEMBL4627270, “Design, synthesis and biological evaluation of novel carbamates as potential inhibitors of acetylcholinesterase and butyrylcholinesterase” (Bioorg Med Chem, 2020).

How the values were obtained:
Cholinesterase [1] = target: T1, Cholinesterase (Homo sapiens, UniProt P06276); experiment: Inhibition of human plasma BChE using S-butyrylthiocholine iodide as substrate preincubated for 20 to 60 mins followed by substrate addition and measured for 5 mins by Ellman's method
T1 sequence (P06276 whole entry): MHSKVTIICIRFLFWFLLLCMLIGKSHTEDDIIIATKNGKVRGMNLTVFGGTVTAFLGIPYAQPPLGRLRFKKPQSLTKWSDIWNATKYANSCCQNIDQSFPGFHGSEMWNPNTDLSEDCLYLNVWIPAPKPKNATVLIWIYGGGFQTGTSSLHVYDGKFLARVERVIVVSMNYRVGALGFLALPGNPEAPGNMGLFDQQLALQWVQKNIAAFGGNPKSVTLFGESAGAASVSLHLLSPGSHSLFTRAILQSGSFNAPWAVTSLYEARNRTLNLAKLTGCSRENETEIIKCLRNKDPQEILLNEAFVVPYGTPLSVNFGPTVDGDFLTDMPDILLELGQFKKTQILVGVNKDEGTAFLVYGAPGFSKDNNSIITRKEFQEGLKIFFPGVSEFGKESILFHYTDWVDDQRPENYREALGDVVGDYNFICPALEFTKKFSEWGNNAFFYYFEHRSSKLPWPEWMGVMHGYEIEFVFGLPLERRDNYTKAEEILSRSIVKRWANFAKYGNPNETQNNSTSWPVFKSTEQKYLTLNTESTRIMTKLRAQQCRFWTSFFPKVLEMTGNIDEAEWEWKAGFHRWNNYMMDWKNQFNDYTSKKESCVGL

Cholinesterase [2] = target: T1, Cholinesterase; experiment: Inhibition of human plasma BChE using S-butyrylthiocholine iodide as substrate preincubated for 60 mins followed by substrate addition and measured for 5 mins by Ellman's method
Cholinesterase [3] = target: Cholinesterase (Equus caballus, UniProt P81908); experiment: Inhibition of equine serum BChE using S-butyrylthiocholine iodide as substrate preincubated for 60 mins followed by substrate addition and measured for 5 mins by Ellman's method
Cholinesterase (Equus caballus, UniProt P81908), sequence (P81908 whole entry): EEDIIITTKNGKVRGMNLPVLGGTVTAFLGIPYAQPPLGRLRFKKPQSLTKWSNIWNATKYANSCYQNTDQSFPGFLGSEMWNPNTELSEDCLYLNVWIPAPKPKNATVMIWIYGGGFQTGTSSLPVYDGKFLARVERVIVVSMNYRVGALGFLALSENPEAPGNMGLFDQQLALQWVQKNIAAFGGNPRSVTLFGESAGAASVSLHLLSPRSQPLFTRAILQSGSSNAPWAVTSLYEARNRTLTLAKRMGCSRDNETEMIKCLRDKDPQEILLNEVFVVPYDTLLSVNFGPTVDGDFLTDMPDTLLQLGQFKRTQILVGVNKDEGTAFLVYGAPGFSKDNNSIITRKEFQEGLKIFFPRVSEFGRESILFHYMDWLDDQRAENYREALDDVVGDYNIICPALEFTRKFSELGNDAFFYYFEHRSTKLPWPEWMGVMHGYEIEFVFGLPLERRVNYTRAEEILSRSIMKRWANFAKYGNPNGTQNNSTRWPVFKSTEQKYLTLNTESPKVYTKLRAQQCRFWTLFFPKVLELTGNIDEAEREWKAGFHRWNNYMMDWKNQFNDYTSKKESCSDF

Cholinesterase [4] = target: T1, Cholinesterase; experiment: Inhibition of human plasma BChE assessed as decarbamylation rate constant using S-butyrylthiocholine iodide as substrate preincubated for 15 to 60 mins followed by substrate addition by Ellman's method
Acetylcholinesterase [5] = target: Acetylcholinesterase (Electrophorus electricus, UniProt O42275); experiment: Inhibition of electric eel AChE using S-acetylthiocholine iodide as substrate preincubated for 60 mins followed by substrate addition and measured for 5 mins by Ellman's method
Acetylcholinesterase (Electrophorus electricus, UniProt O42275), sequence (O42275 whole entry): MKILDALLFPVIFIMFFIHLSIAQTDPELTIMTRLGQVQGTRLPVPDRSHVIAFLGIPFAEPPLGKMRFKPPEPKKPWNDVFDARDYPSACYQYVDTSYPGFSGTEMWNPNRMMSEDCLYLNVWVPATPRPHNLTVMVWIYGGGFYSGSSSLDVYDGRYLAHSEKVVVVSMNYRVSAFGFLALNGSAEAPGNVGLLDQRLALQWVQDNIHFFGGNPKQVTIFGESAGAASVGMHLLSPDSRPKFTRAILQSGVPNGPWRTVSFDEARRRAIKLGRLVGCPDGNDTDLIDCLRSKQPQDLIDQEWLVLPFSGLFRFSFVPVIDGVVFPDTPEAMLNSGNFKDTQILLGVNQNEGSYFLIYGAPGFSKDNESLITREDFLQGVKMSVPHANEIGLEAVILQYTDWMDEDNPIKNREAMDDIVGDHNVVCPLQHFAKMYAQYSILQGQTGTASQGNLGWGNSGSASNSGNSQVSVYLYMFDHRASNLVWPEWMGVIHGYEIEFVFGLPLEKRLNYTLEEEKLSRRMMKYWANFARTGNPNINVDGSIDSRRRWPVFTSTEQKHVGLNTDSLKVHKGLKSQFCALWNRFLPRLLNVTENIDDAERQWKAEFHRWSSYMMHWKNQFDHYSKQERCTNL

Cholinesterase [6] = target: T1, Cholinesterase; experiment: Inhibition of human plasma BChE assessed as second order carbamylation rate constant using S-butyrylthiocholine iodide as substrate preincubated for 15 to 60 mins followed by substrate addition by Ellman's method
Cholinesterase [7] = target: T1, Cholinesterase; experiment: Inhibition of human plasma BChE at 2.5 to 25 nM using S-butyrylthiocholine iodide as substrate incubated prior to substrate addition and measured for 5 mins by Ellman's method; settings: TDE = time-dependent effect
Cholinesterase [8] = target: T1, Cholinesterase; experiment: Potency index, ratio of test compound to rivastigmine for inhibition of human plasma BChE assessed as second order carbamylation rate constant using S-butyrylthiocholine iodide as substrate
Acetylcholinesterase [9] = target: Acetylcholinesterase (Homo sapiens, UniProt P22303); experiment: Inhibition of human erythrocyte AChE using S-acetylthiocholine iodide as substrate preincubated for 60 mins followed by substrate addition and measured for 5 mins by Ellman's method
Acetylcholinesterase (Homo sapiens, UniProt P22303), sequence (P22303 whole entry): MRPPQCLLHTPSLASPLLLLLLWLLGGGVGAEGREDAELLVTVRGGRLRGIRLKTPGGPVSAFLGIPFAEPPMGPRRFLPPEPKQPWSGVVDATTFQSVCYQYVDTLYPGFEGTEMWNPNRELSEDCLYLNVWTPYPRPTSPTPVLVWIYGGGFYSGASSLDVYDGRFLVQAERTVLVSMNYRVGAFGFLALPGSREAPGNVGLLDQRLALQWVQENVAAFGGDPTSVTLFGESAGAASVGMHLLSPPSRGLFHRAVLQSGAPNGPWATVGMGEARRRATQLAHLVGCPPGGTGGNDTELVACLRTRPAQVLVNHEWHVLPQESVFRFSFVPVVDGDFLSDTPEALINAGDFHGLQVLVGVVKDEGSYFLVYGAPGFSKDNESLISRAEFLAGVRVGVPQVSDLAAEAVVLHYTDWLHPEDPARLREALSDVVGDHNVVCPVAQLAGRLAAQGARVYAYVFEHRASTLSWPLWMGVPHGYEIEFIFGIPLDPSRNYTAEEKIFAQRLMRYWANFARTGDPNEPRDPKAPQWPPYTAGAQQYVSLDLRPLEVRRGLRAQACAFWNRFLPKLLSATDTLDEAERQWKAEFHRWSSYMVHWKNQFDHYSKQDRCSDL

Cholinesterase [10] = target: T1, Cholinesterase; experiment: Inhibition of human plasma BChE at 15 to 100 nM using S-butyrylthiocholine iodide as substrate incubated prior to substrate measured for 5 mins by Ellman's method; settings: TDE = time-dependent effect

Row | Structure (SMILES) | IC50 (Cholinesterase [3]) | IC50 (Acetylcholinesterase [5]) | also measured
1 | CN(C)C(=O)Oc1cccc(C(O)CNC2CCCCC2)c1 (stereo not drawn) | 0.008 µM | 1.87 µM | inhibition (Cholinesterase [1]): Dose-dependent effect; IC50 (Cholinesterase [2]): 2.2 µM; K (Cholinesterase [4]): 18.9 ×10⁻³ /min; K (Cholinesterase [6]): 1110 ×10⁴ /M/min; inhibition (Cholinesterase [7]): Tde; Ratio (Cholinesterase [8]): 10; IC50 (Acetylcholinesterase [9]): 792 µM
2 | CN(C)C(=O)Oc1ccc(C(O)CNC2CCCCC2)cc1 (stereo not drawn) | 0.027 µM | 0.655 µM | inhibition (Cholinesterase [1]): Dose-dependent effect; IC50 (Cholinesterase [2]): 10.6 µM; K (Cholinesterase [4]): 14.8 ×10⁻³ /min; K (Cholinesterase [6]): 206 ×10⁴ /M/min; inhibition (Cholinesterase [10]): Tde; Ratio (Cholinesterase [8]): 20; IC50 (Acetylcholinesterase [9]): 266 µM
3 | CCN(C)C(=O)Oc1cccc([C@H](C)N(C)C)c1 |  |  | K (Cholinesterase [4]): 2.3 ×10⁻³ /min; K (Cholinesterase [6]): 33.3 ×10⁴ /M/min
4 | CCC(C)(C)NCC(O)c1cccc(OC(=O)N(C)C)c1 (stereo not drawn) | 0.18 µM | 4.15 µM | 
5 | CN(C)C(=O)Oc1ccc(C(O)CN2CCCCC2)cc1 (stereo not drawn) | 0.245 µM | 3.51 µM | 
6 | CN(C)C(=O)Oc1cccc(C(O)CNc2ccccc2)c1 (stereo not drawn) | 0.282 µM | 67.5 µM | 
7 | CN(C)C(=O)Oc1cccc(C(O)CNC(C)(C)c2ccccc2)c1 (stereo not drawn) | 0.303 µM | 7.12 µM | 
8 | C#Cc1cccc(NCC(O)c2cccc(OC(=O)N(C)C)c2)c1 (stereo not drawn) | 0.154 µM | 70.5 µM | 
9 | CN(C)C(=O)Oc1cccc(C(O)CNc2ccc(I)cc2)c1 (stereo not drawn) | 0.381 µM | 28.9 µM | 
10 | CN(C)C(=O)Oc1cccc(C(O)CN2CCCC2)c1 (stereo not drawn) | 0.179 µM | 3.15 µM | 
11 | CN(C)C(=O)Oc1cccc(C(O)CNc2ccc(F)cc2)c1 (stereo not drawn) | 0.194 µM | 45.4 µM | 
12 | CN(C)C(=O)Oc1cccc(C(O)CNC(C)(C)C)c1 (stereo not drawn) | 0.383 µM | 6.08 µM | 
13 | CN(C)C(=O)Oc1cccc(C(O)CN2CCOCC2)c1 (stereo not drawn) | 2.19 µM | > 100 µM | 
14 | CN(C)C(=O)Oc1ccc(C(O)CNC(C)(C)C)cc1 (stereo not drawn) | 5.37 µM | 15 µM | 
15 | CN(C)C(=O)Oc1cccc(C(O)CNC2CCCC2)c1 (stereo not drawn) | 0.057 µM | 1.39 µM | 
16 | CN(C)C(=O)Oc1cccc(C(O)CN2CCCCC2)c1 (stereo not drawn) | 0.097 µM | 3.74 µM | 
17 | CCC(C)(C)NCC(O)c1ccc(OC(=O)N(C)C)cc1 (stereo not drawn) | 1.57 µM | 15.9 µM | 
